Columns and labels:
hFXR [1] = target: T1, hFXR (Homo sapiens, UniProt Q96RI1); assay: In Vitro FXR Assay (PGL3), luciferase reporter in transfected CV-1 cells; format: cell-based; conditions: CV-1 cells transfected with hFXR, hRXR, PGL3-ECRE*6-luc; 18 hrs incubation; luminescence
T1 construct: expressed in transfected cells; host or cells: CV-1 cells
T1 sequence (Q96RI1 1-486): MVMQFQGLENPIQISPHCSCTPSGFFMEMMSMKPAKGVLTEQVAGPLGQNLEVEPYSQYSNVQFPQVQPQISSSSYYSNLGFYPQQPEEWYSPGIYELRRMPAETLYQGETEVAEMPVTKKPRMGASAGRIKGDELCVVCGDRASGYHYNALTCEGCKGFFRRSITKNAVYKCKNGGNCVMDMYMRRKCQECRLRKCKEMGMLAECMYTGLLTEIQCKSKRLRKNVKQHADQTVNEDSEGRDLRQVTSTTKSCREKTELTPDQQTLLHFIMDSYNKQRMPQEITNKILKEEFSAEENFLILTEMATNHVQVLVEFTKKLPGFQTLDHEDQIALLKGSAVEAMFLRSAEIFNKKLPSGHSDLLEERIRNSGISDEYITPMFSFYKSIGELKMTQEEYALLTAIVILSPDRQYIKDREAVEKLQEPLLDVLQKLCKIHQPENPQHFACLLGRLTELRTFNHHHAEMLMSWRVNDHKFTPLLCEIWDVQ
T1 sequence (P19793 1-462 partner): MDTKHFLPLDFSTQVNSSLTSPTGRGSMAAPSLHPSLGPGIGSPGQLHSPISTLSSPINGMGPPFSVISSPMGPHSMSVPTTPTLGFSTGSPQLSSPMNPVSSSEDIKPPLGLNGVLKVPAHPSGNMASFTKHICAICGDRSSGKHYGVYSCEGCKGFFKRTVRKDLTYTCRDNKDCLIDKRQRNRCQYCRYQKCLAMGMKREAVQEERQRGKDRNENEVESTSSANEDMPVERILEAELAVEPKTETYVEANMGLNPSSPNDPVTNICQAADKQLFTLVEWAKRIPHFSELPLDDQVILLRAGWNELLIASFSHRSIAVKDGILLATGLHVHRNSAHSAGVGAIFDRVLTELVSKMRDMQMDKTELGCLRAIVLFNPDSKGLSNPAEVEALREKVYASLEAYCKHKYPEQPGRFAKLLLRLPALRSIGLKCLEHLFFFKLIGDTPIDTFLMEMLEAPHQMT
Experimental: Example B-1: In Vitro FXR Assay (PGL3)
CV-1 cells were seeded at a density of 2,000,000 cells in a T175 flask with DMEM+10% charcoal double-stripped FBS and incubated at 37° C. in a 5% CO2 for 18 h (O/N).
After 18 h of incubation, the medium in the T175 flask was changed with fresh DMEM+10% charcoal super-stripped serum.
To prepare the transfection reaction mixture, the transfection reagent (X-tremeGENE HP from Roche, Cat #06 366 236 001) was added in to a 1.5 mL microcentrifuge tube labelled “A” at a ratio of 1:3 (DNA in g: transfection reagent in μL). OptiMEM medium (Life Technologies, Cat #31985-062) was added accordingly to provide a total volume of 1 mL. The transfection reaction mixture was then briefly vortexed and incubated at room temperature for 5 minutes.
In a separate 1.5 mL microcentrifuge tube labelled “B”, 100 μL OptiMEM and plasmids XPD90Gal pCMXhFXRfl, pCMXhRXRfl+PGL3-ECRE*6-luc+CMX-YFP in the ratio 2 g: 2 g:18 g:3 g were added. This microcentrifuge tube “B” was then briefly vortexed and incubated at room temperature for 5 minutes.
The total volume in tube labelled “A” was then transferred in to tube labelled “B.” The mixture was then briefly vortexed and the transfection:DNA complex was then incubated for about 15-20 minutes at room temperature.
Following incubation, the transfection reagent/DNA mixture complex was then added to cells in the T175 flask and the cells were incubated at […] (O/N) at 37° C. in 5% CO2.
In a 96 well plate, a half logarithmic serial dilution was prepared. OptiMEM was used as the diluent. Using any of one of the compounds described herein, a compound stock solution of 10 mM was prepared. An initial 1:100 dilution was made into the first well for a final concentration of 100 μM. The final concentrations in the 96-well plate was prepared by using a multichannel pipette to transfer 5 μL of the diluted compound to 384-well plate in quadruplicate.
Cells in T175 flask were trypsinized and cells were resuspending in 40 mL phenol red free DMEM+10% charcoal super-stripped FBS. Typically, one T175 flask was sufficient to seed two 384 well plates. CV-1 cells were seeded at 45 μL cell suspension/well using a multichannel pipet or a 384 multidrop dispenser. The cells were then incubated for 18 hrs, overnight.
After removing the plates from the incubator, the medium was flicked out of plate and 384 well plate was turned upside down onto paper towel. The remaining medium was gently tapped out. 15 μL lysis buffer was then added to each well using a multichannel pipet or a 384 well multi-drop dispenser. After incubation for 10 minutes at room temperature on shaker, 30 μL Luciferase buffer was added to each well. Luminescence counts were taken immediately using the Perkin Elmer Envision.
The ability of the compounds disclosed herein to […] FXR activity was quantified and the respective EC50 value was determined. Fex=fexaramine.

hFXR [2] = target: T1, hFXR; assay: In Vitro FXR Assay (TK), luciferase reporter in transfected CV-1 cells; format: cell-based; conditions: CV-1 cells transfected with hFXR, hRXR, TK-ECRE-luc; 18 hrs incubation; luminescence; compounds with a maximum efficacy of <25% of the Fexaramine control classified as '+'
Experimental: Example B-2: In Vitro FXR Assay (TK)
CV-1 cells were seeded at a density of 2,000,000 cells in a T175 flask with DMEM+10% charcoal double-stripped FBS and incubated at 37° C. in 5% CO2 for 18 h (O/N).
After 18 h of incubation, the medium in the T175 flask was changed with fresh DMEM+10% charcoal super-stripped serum. In a polypropylene tube, 2500 μL OptiMEM (Life Technologies, Cat #31985-062) was combined with expression plasmids for hFXR, hRXR, TK-ECRE-luc and pCMX-YFP. The tube was then briefly vortexed and incubated at room temperature for 5 minutes. Transfection reagent (X-tremeGENE HP from Roche, Cat #06 366 236 001) was added to the OptiMEM/plasmid mixture vortexed and incubated at room temperature for 20 minutes. Following incubation, the transfection reagent/DNA mixture complex was added to cells in the T175 flask and the cells were incubated at 37° C. in 5% CO2 for 18 h (O/N).
Compounds were serially diluted in DMSO and added to transfected CV-1 cells. The cells were then incubated for 18 hrs. The next day cells were lysed and examined for luminescence.

Compound | Cmpd/Fex (ratio of the EC50 for the test compound relative to the EC50 of the Fexaramine control) (hFXR [1]) | EC50 (hFXR [2]) [µM]
COc1cc(-c2cccc(N(Cc3ccc(-c4ccc(N(C)C)cc4)cc3)C(=O)C3CCCCC3)c2)ccn1 [Compound 3, N-((4′-(Dimethylamino)-[1,1′-biphenyl]-4-yl)methyl)-N-(3-(2-methoxypyridin-4-yl)phenyl)cyclohexanecarboxamide] | +++ (‘+++’ means Cmpd/Fex <10) | 
COC(=O)NCc1cccc(N(Cc2ccc(-c3ccc(N(C)C)cc3)cc2)C(=O)C2CCCCC2)c1 [Compound 11, Methyl 3-(N-((4′-(dimethylamino)-[1,1′-biphenyl]-4-yl)methyl)cyclohexanecarboxamido)benzylcarbamate] | + (‘+’ means Cmpd/Fex >100) | 
CCC/C=C/c1cccc(N(Cc2ccc(-c3ccc(N(C)C)cc3)cc2)C(=O)C2CCCCC2)c1 [Compound 7, (E)-N-((4′-(dimethylamino)-[1,1′-biphenyl]-4-yl)methyl)-N-(3-(pent-1-en-1-yl)phenyl)cyclohexanecarboxamide] | ++ (‘++’ means Cmpd/Fex >10 & <100) | 3 to 10
COc1cccc(-c2cccc(N(Cc3ccc(-c4ccc(N(C)C)cc4)cc3)C(=O)C3CCCCC3)c2)c1 [Compound 2, N-((4′-(Dimethylamino)-[1,1′-biphenyl]-4-yl)methyl)-N-(3′-methoxy-[1,1′-biphenyl]-3-yl)cyclohexanecarboxamide] | ++ (‘++’ means Cmpd/Fex >10 & <100) | 
CN(C)c1ccc(-c2ccc(CN(C(=O)C3CCCCC3)c3cccc(CN4CCCC4=O)c3)cc2)cc1 [Compound 8, N-((4′-(Dimethylamino)-[1,1′-biphenyl]-4-yl)methyl)-N-(3-((2-oxopyrrolidin-1-yl)methyl)phenyl)cyclohexanecarboxamide] | + (‘+’ means Cmpd/Fex >100) | 
CC(C)CNc1cccc(N(Cc2ccc(-c3ccc(N(C)C)cc3)cc2)C(=O)C2CCCCC2)c1 [Compound 6, N-((4′-(Dimethylamino)-[1,1′-biphenyl]-4-yl)methyl)-N-(3-(isobutylamino)phenyl) cyclohexanecarboxamide] | + (‘+’ means Cmpd/Fex >100) | 
CN(C)CCNc1cccc(N(Cc2ccc(-c3ccc(N(C)C)cc3)cc2)C(=O)C2CCCCC2)c1 [Compound 5, N-((4′-(Dimethylamino)-[1,1′-biphenyl]-4-yl)methyl)-N-(3-((2-(dimethylamino)ethyl)amino)phenyl) cyclohexanecarboxamide] | + (‘+’ means Cmpd/Fex >100) | 
COC(=O)CN(C)c1cccc(N(Cc2ccc(-c3ccc(N(C)C)cc3)cc2)C(=O)C2CCCCC2)c1 [Compound 10, Methyl 2-((3-(N-((4′-(dimethylamino)-[1,1′-biphenyl]-4-yl)methyl)cyclohexanecarboxamido)phenyl)(methyl)amino)acetate] | + (‘+’ means Cmpd/Fex >100) | 

The next lines start with the values.

Cmpd/Fex (ratio of the EC50 for the test compound relative to the EC50 of the Fexaramine control) (hFXR [1]) | EC50 (hFXR [2]) [µM] | Compound
+++ (‘+++’ means Cmpd/Fex <10) | ≤ 3 | CN(C)c1ccc(-c2ccc(CN(C(=O)C3CCCCC3)c3cccc(/C=C/c4ncco4)c3)cc2)cc1 [Compound 14, (E)-N-((4′-(Dimethylamino)-[1,1′-biphenyl]-4-yl)methyl)-N-(3-(2-(oxazol-2-yl)vinyl)phenyl)cyclohexanecarboxamide]
+ (‘+’ means Cmpd/Fex >100) |  | CN(C)c1ccc(-c2ccc(CN(C(=O)C3CCCCC3)c3cccc(Oc4ccccc4)c3)cc2)cc1 [Compound 19, N-((4′-(Dimethylamino)-[1,1′-biphenyl]-4-yl)methyl)-N-(3-phenoxyphenyl)cyclohexanecarboxamide]
++ (‘++’ means Cmpd/Fex >10 & <100) |  | CNC(=O)/C=C/c1cccc(N(Cc2ccc(-c3ccc(N(C)C)cc3)cc2)C(=O)C2CCCCC2)c1 [Compound 12, (E)-N-((4′-(Dimethylamino)-[1,1′-biphenyl]-4-yl)methyl)-N-(3-(3-(methylamino)-3-oxoprop-1-en-1-yl)phenyl)cyclohexanecarboxamide]
++ (‘++’ means Cmpd/Fex >10 & <100) |  | C/C=C\c1cccc(N(Cc2ccc(-c3ccc(N(C)C)cc3)cc2)C(=O)C2CCCCC2)c1 [Compound 17, (Z)-N-((4′-(Dimethylamino)-[1,1′-biphenyl]-4-yl)methyl)-N-(3-(prop-1-en-1-yl)phenyl)cyclohexanecarboxamide]
++ (‘++’ means Cmpd/Fex >10 & <100) | 3 to 10 | C/C=C/c1cccc(N(Cc2ccc(-c3ccc(N(C)C)cc3)cc2)C(=O)C2CCCCC2)c1 [Compound 16, (E)-N-((4′-(Dimethylamino)-[1,1′-biphenyl]-4-yl)methyl)-N-(3-(prop-1-en-1-yl)phenyl)cyclohexanecarboxamide]
+ (‘+’ means Cmpd/Fex >100) | ≤ 3 | CN(C)C(=O)/C=C/c1cccc(N(Cc2ccc(-c3ccc(N(C)C)cc3)cc2)C(=O)C2CCCCC2)c1 [Compound 13, (E)-N-(3-(3-(Dimethylamino)-3-oxoprop-1-en-1-yl)phenyl)-N-((4′-(dimethylamino)-[1,1′-biphenyl]-4-yl)methyl)cyclohexanecarboxamide]
+ (‘+’ means Cmpd/Fex >100) | ≤ 3 | O=C(C1CCCCC1)N(Cc1ccc(-c2ccc(F)cc2)cc1)c1cccc(-c2ccccc2)c1 [Compound 15, N-([1,1′-Biphenyl]-3-yl)-N-((4′-fluoro-[1,1′-biphenyl]-4-yl)methyl)cyclohexanecarboxamide]
